Measured values: patent publication US10676485B2, “Macrocyclic MCL-1 inhibitors and methods of use” (AbbVie Inc., priority 2017, dated 2020)
Read-outs that look alike come from different tables or passages of the source.

Legend:
[1] = test system: NCI-H929 human multiple myeloma tumor cell line; assay: NCI-H929 cell viability assay (CellTiter-Glo); format: cell-based; conditions: NCI-H929, read-out: H929 Viability IC50 (μM), 10% FBS, 24 hours of compound treatment
Description: In one exemplary set of conditions, NCI-H929 or AMO-1 (ATCC. Manassas, Va.) were plated 4.000 cells per well in 384-well tissue culture plates (Corning. Corning, N.Y.) in a total volume of 25 μL RPMI tissue culture medium supplemented with 10% fetal bovine serum (Sigma-Aldrich, St. Louis, Mo.) and treated with a 3-fold serial dilution of the compounds of interest with a Labcyte Echo from a final concentration of 10 μM to 0.0005 μM. Each concentration was tested in duplicate at least 3 independent times. A luminescent signal proportional to the number of viable cells following 24 hours of compound treatment was determined using the CellTiter-Glo® Luminescent Cell Viability Assay according to the manufacturer's recommendations (Promega Corp., Madison, Wis.). The plates were read in a Perkin Elmer Envision using a Luminescence protocol. To generate dose response curves the data is normalized to percent viability by setting the averages of the staurosporine (10 uM) and DMSO only control wells to 0% and (00)% viability respectively. The IC50 values for the compounds are generated by fitting the normalized data with Accelrys Assay Explorer 3.3 to a sigmoidal curve model using linear regression.

GST-MCL-1 = GST-MCL-1 (Homo sapiens (Human), UniProt Q07820); assay: TR-FRET MCL-1 binding assay (competition with probe F-Bak)
GST-MCL-1, sequence (Q07820 whole entry): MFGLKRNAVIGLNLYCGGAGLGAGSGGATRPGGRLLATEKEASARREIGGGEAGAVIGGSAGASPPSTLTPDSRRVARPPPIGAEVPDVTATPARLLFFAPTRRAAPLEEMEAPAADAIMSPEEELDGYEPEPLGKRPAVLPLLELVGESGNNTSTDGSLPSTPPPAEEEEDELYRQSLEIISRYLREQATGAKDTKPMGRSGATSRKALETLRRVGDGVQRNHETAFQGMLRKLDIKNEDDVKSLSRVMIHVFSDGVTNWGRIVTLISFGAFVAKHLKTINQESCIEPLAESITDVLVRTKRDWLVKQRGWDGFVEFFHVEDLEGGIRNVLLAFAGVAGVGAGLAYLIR
Description: For the assay, an acoustic dispenser was used to prepare dilution series from 10 mM test compounds in 100% DMSO and directly transfer 160 nL into low volume 384-well assay plates. 8 μL of a protein/probe/antibody mix was then added to each well resulting in final concentrations listed below: Test compound: 11 three-fold dilutions beginning at 25 μM
The samples were then mixed on a shaker for 1 minute and incubated for an additional 2 hours at room temperature. For each assay plate, a probe/antibody and protein/antibody/probe mixture were included as a negative and a positive control, respectively. Fluorescence was measured on the Envision (Perkin Elmer) using a 340/35 nm excitation filter and 520/525 (F-Bak) and 495/510 nm (Tb-labeled anti-his antibody) emission filters. […] The TR-FRET assay can be performed in the presence of varying concentrations of human serum (HS) or fetal bovine serum (FBS). Compounds were tested both without HS and in the presence of 10% HS.

[2] = test system: AMO-1 human multiple myeloma tumor cell line; assay: AMO-1 cell viability assay (CellTiter-Glo); format: cell-based; conditions: AMO1, read-out: AMO-1 Viability IC50 (μM), 10% FBS, 24 hours of compound treatment
[3] = read-out: MCL-1 Binding Ki (nM, 10% HS), in the presence of 10% HS
[4] = without HS, read-out: MCL-1 Binding Ki

| Structure (SMILES) | IC50 [1] [µM] | Ki (GST-MCL-1; [3]) [nM] | Ki (GST-MCL-1; [4]) [nM] | IC50 [2] [nM] |
| --- | --- | --- | --- | --- |
| Cc1c(Cl)c2c(Cl)c(C)c1-c1c(-c3ccc(F)cc3)sc3ncnc(c13)O[C@@H](C(=O)O)Cc1cc(ccc1OCc1ccnc(C3=CC[C@@](F)(COC[C@H]4COCCO4)CC3)n1)OC[C@@H](CN1CCN(C)CC1)O2 [Example 43, (7R,16R)-19,23-dichloro-10-({2-[(4R)-4-({[(2R)-1,4-dioxan-2-yl]methoxy}methyl)-4-fluorocyclohex-1-en-1-yl]pyrimidin-4-yl}methoxy)-1-(4-fluorophenyl)-20,22-dimethyl-16-[(4-methylpiperazin-1-yl)methyl]-7,8,15,16-tetrahydro-18,21-etheno-13,9-(metheno)-6,14,17-trioxa-2-thia-3,5-diazacyclononadeca[1,2,3-cd]indene-7-carboxylic acid] | 0.000365 | 0.18 | 0.02 | 0.346 |
| Cc1c(Cl)c2c(Cl)c(C)c1-c1c(-c3ccc(F)cc3)sc3ncnc(c13)O[C@@H](C(=O)O)Cc1cc(ccc1OCc1ccnc([C@H]3CC[C@@H](OCC4COCCO4)CC3)n1)OC[C@@H](CN1CCN(C)CC1)O2 (stereo partly drawn) [Example 15, (7R,16R)-19,23-dichloro-10-[(2-{(1s,4s)-4-[(1,4-dioxan-2-yl)methoxy]cyclohexyl}pyrimidin-4-yl)methoxy]-1-(4-fluorophenyl)-20,22-dimethyl-16-[(4-methylpiperazin-1-yl)methyl]-7,8,15,16-tetrahydro-18,21-etheno-13,9-(metheno)-6,14,17-trioxa-2-thia-3,5-diazacyclononadeca[1,2,3-cd]indene-7-carboxylic acid] | 0.000294 | 0.15 | 0.013 | 0.156 |
| Cc1c(Cl)c2c(Cl)c(C)c1-c1c(-c3ccc(F)cc3)sc3ncnc(c13)O[C@@H](C(=O)O)Cc1cc(ccc1OCc1ccnc(-c3ccc(OC[C@H]4COCCO4)nc3)n1)OC[C@@H](CN1CCN(C)CC1)O2 [Example 5, (7R,16R)-19,23-dichloro-10-{[2-(6-{[(2R)-1,4-dioxan-2-yl]methoxy}pyridin-3-yl)pyrimidin-4-yl]methoxy}-1-(4-fluorophenyl)-20,22-dimethyl-16-[(4-methylpiperazin-1-yl)methyl]-7,8,15,16-tetrahydro-18,21-etheno-13,9-(metheno)-6,14,17-trioxa-2-thia-3,5-diazacyclononadeca[1,2,3-cd]indene-7-carboxylic acid] | 0.00037 | 0.71 | 0.048 | 0.178 |
| Cc1c(Cl)c2c(Cl)c(C)c1-c1c(C3CCC3)sc3ncnc(c13)O[C@@H](C(=O)O)Cc1cc(ccc1OCc1ccnc([C@H]3CC[C@H](OC[C@H]4COCCO4)CC3)n1)OC[C@@H](CN1CCN(C)CC1)O2 [Example 52, (7R,16R)-19,23-dichloro-1-cyclobutyl-10-({2-[(1R,4r)-4-{[(2R)-1,4-dioxan-2-yl]methoxy}cyclohexyl]pyrimidin-4-yl}methoxy)-20,22-dimethyl-16-[(4-methylpiperazin-1-yl)methyl]-7,8,15,16-tetrahydro-18,21-etheno-13,9-(metheno)-6,14,17-trioxa-2-thia-3,5-diazacyclononadeca[1,2,3-cd]indene-7-carboxylic acid] | 0.00118 | 0.72 | < 0.01 | 0.448 |
| COc1ccccc1-c1nccc(COc2ccc3cc2C[C@H](C(=O)O)Oc2ncnc4sc(C5=COCCO5)c(c24)-c2c(C)c(Cl)c(c(Cl)c2C)O[C@H](CN2CCN(C)CC2)CO3)n1 [Example 27, (7R,16R)-19,23-dichloro-1-(5,6-dihydro-1,4-dioxin-2-yl)-10-{[2-(2-methoxyphenyl)pyrimidin-4-yl]methoxy}-20,22-dimethyl-16-[(4-methylpiperazin-1-yl)methyl]-7,8,15,16-tetrahydro-18,21-etheno-13,9-(metheno)-6,14,17-trioxa-2-thia-3,5-diazacyclononadeca[1,2,3-cd]indene-7-carboxylic acid] | 0.0015 | 0.02 | 0.008 | 0.435 |
| Cc1c(Cl)c2c(Cl)c(C)c1-c1c(-c3ccc(F)cc3)sc3ncnc(c13)O[C@@H](C(=O)O)Cc1cc(ccc1OCc1ccnc(N3CCO[C@@H](COCC4COCCO4)C3)n1)OC[C@@H](CN1CCN(C)CC1)O2 (stereo partly drawn) [Example 20, (7R,16R)-19,23-dichloro-10-({2-[(2R)-2-{[(1,4-dioxan-2-yl)methoxy]methyl}morpholin-4-yl]pyrimidin-4-yl}methoxy)-1-(4-fluorophenyl)-20,22-dimethyl-16-[(4-methylpiperazin-1-yl)methyl]-7,8,15,16-tetrahydro-18,21-etheno-13,9-(metheno)-6,14,17-trioxa-2-thia-3,5-diazacyclononadeca[1,2,3-cd]indene-7-carboxylic acid] | 0.000513 | 0.47 | 0.058 | 0.286 |
| Cc1c(Cl)c2c(Cl)c(C)c1-c1c(-c3ccc(F)cc3)sc3ncnc(c13)O[C@@H](C(=O)O)Cc1cc(ccc1OCc1ccnc(-c3cccc(OC[C@@H]4COCCO4)c3)n1)OC[C@@H](CN1CCN(C)CC1)O2 [Example 22, (7R,16R)-19,23-dichloro-10-{[2-(3-{[(2S)-1,4-dioxan-2-yl]methoxy}phenyl)pyrimidin-4-yl]methoxy}-1-(4-fluorophenyl)-20,22-dimethyl-16-[(4-methylpiperazin-1-yl)methyl]-7,8,15,16-tetrahydro-18,21-etheno-13,9-(metheno)-6,14,17-trioxa-2-thia-3,5-diazacyclononadeca[1,2,3-cd]indene-7-carboxylic acid] | 0.000333 | 0.89 | 0.016 | 0.142 |
| Cc1c(Cl)c2c(Cl)c(C)c1-c1c(-c3ccc(F)cc3)sc3ncnc(c13)O[C@@H](C(=O)O)Cc1cc(ccc1OCc1ccnc(OC[C@@H]3COCCO3)n1)OC[C@@H](CN1CCN(C)CC1)O2 [Example 24, (7R,16R)-19,23-dichloro-10-[(2-{[(2S)-1,4-dioxan-2-yl]methoxy}pyrimidin-4-yl)methoxy]-1-(4-fluorophenyl)-20,22-dimethyl-16-[(4-methylpiperazin-1-yl)methyl]-7,8,15,16-tetrahydro-18,21-etheno-9,13-(metheno)-6,14,17-trioxa-2-thia-3,5-diazacyclononadeca[1,2,3-cd]indene-7-carboxylic acid] | 0.00197 | 0.38 | 0.038 | 0.687 |
| Cc1c(Cl)c2c(Cl)c(C)c1-c1c(-c3ccc(F)cc3)sc3ncnc(c13)O[C@@H](C(=O)O)Cc1cc(ccc1OCc1ccnc(-c3cccc(OC[C@H]4COCCO4)c3)n1)OC[C@@H](CN1CCN(C)CC1)O2 [Example 21, (7R,16R)-19,23-dichloro-10-{[2-(3-{[(2R)-1,4-dioxan-2-yl]methoxy}phenyl)pyrimidin-4-yl]methoxy}-1-(4-fluorophenyl)-20,22-dimethyl-16-[(4-methylpiperazin-1-yl)methyl]-7,8,15,16-tetrahydro-18,21-etheno-13,9-(metheno)-6,14,17-trioxa-2-thia-3,5-diazacyclononadeca[1,2,3-cd]indene-7-carboxylic acid] | 0.000168 | 1.01 | 0.011 | 0.0488 |
| Cc1c2ccc(c1Cl)O[C@H](CN1CCN(C)CC1)COc1ccc(OCc3ccnc(C4COCCO4)n3)c(c1)C[C@H](C(=O)O)Oc1ncnc3sc(-c4ccc(F)cc4)c-2c13 (stereo partly drawn) [Example 4, (7R,16R,21S)-19-chloro-10-{[2-(1,4-dioxan-2-yl)pyrimidin-4-yl]methoxy}-1-(4-fluorophenyl)-20-methyl-16-[(4-methylpiperazin-1-yl)methyl]-7,8,15,16-tetrahydro-18,21-etheno-13,9-(metheno)-6,14,17-trioxa-2-thia-3,5-diazacyclononadeca[1,2,3-cd]indene-7-carboxylic acid] | 0.00572 | 0.32 | 0.055 | 2.73 |
| Cc1c(Cl)c2c(Cl)c(C)c1-c1c(C3CCCCC3)sc3ncnc(c13)O[C@@H](C(=O)O)Cc1cc(ccc1OCc1ccnc(-c3ccc(OC[C@@H]4COCCO4)cc3)n1)OC[C@@H](CN1CCN(C)CC1)O2 [Example 17, (7R,16R)-19,23-dichloro-1-cyclohexyl-10-{[2-(4-{[(2S)-1,4-dioxan-2-yl]methoxy}phenyl)pyrimidin-4-yl]methoxy}-20,22-dimethyl-16-[(4-methylpiperazin-1-yl)methyl]-7,8,15,16-tetrahydro-18,21-etheno-9,13-(metheno)-6,14,17-trioxa-2-thia-3,5-diazacyclononadeca[1,2,3-cd]indene-7-carboxylic acid] | 0.00565 | 4.11 | 0.09 | 1 |
| Cc1c(Cl)c2c(Cl)c(C)c1-c1c(-c3ccc(F)cc3)sc3ncnc(c13)O[C@@H](C(=O)O)Cc1cc(ccc1OCc1ccnc(C3(COC[C@H]4COCCO4)CCC3)n1)OC[C@@H](CN1CCN(C)CC1)O2 [Example 11, (7R,16R)-19,23-dichloro-10-({2-[1-({[(2S)-1,4-dioxan-2-yl]methoxy}methyl)cyclobutyl]pyrimidin-4-yl}methoxy)-1-(4-fluorophenyl)-20,22-dimethyl-16-[(4-methylpiperazin-1-yl)methyl]-7,8,15,16-tetrahydro-18,21-etheno-13,9-(metheno)-6,14,17-trioxa-2-thia-3,5-diazacyclononadeca[1,2,3-cd]indene-7-carboxylic acid] | 0.000545 | – | – | 0.188 |
